Experimental data reported in PMC3597565, “Display of Multimeric Antimicrobial Peptides on the Escherichia coli Cell Surface and Its Application as Whole-Cell Antibiotics” (PLoS ONE, 2013).
Values after ≈ are worked out from the molar mass of the structure shown. Peptide text beside a SMILES is read from it.

Tests used:
Format in all cases: cell-based
[1] = tested on: Escherichia coli (ATCC 27325); details: ATCC 27325, 3 h; for MIC: pH 7.4
Method: (§1) The antimicrobial activity of each peptide was determined against eight representative microorganisms, including Gram-positive and Gram-negative bacteria and fungi, using the broth micro dilution assay as described by Park et al. with a slight modification. Briefly, mid-logarithmic phase cells were diluted to 1×10^5 cfu/ml in 10 mM sodium phosphate buffer (NAPB), pH 7.4. Each well of 96-well propylene micro titer plates (Costar, Cambridge, MA, USA) was filled with 90 µl of the diluted cell suspension and 10 µl of serially diluted peptide samples. After incubation for 3 h, fresh medium (trypticase soy broth for bacteria and Saboraud' medium for fungi) was added to the mixture and incubated at 37°C (bacteria) or 30°C (fungi) for an additional 12 h. Inhibition of growth was determined by measuring the absorbance at 620 nm with a Model 550 Microplate Reader (Bio-Rad, Hercules, CA, USA). […] The MIC values were calculated as an average of two independent experiments performed in triplicate.
(§2) ^a To determine the effect of protease digestion on the antimicrobial activity of Buf IIIb-L, synthetic Buf IIIb-L was first incubated with pepsin, trypsin, or chymotrypsin. After incubation at 37 °C for 30 min, the antimicrobial activity of the digested peptide was determined against eight representative microorganisms, including Gram-positive and Gram-negative bacteria and fungi, as described in Materials and Methods.

[2] = tested on: Salmonella enteritidis (ATCC 13076); details: ATCC 13076, 3 h; for MIC: pH 7.4
Method: as §1, §2

[3] = tested on: Candida albicans (ATCC 10231); details: ATCC 10231, 3 h; for MIC: pH 7.4
Method: as §1, §2

[4] = tested on: Staphylococcus aureus (ATCC 15752); details: ATCC 15752, 3 h; for MIC: pH 7.4
Method: as §1, §2

[5] = tested on: Pseudomonas putida (ATCC 17426); details: ATCC 17426, 3 h; for MIC: pH 7.4
Method: as §1, §2

[6] = tested on: Saccharomyces cerevisiae (ATCC 44774); details: ATCC 44774, 3 h; for MIC: pH 7.4
Method: as §1, §2

[7] = tested on: Streptococcus mutans (ATCC 25175); details: ATCC 25175, 3 h; for MIC: pH 7.4
Method: as §1, §2

[8] = tested on: Bacillus subtilis (ATCC 62037); details: ATCC 62037, 3 h; for MIC: pH 7.4
Method: as §1, §2

[9] = tested on: Listeria monocytogenes (ATCC 15313); details: ATCC 15313, 3 h
Method: as §1, with “After incubation for 3 h, fresh medium (trypticase soy broth for bacteria and Saboraud' medium for fungi) was added to the mixture and incubated at 37°C (bacteria) or 30°C (fungi) for an additional 12 h.” left out
Antimicrobial activities of the pepsin-digested peptide mixtures obtained from E. coli cells with surface-expressed LO-Bn fusion proteins were tested against two oral infectious pathogens, Salmonella enteritidis (ATCC 13076) and Listeria monocytogenes (ATCC 15313) as described above except using 10 µl of the 20-fold diluted peptide mixtures obtained from 1×10^11 E. coli cells with surface-expressed LO-Bn fusion proteins instead of synthetic peptide. Growth of cells was determined by measuring absorbance at 620 nm with a Model 550 Microplate Reader (Bio-Rad). […]

[10] = tested on: eight representative microorganisms, including Gram-positive and Gram-negative bacteria and fungi; details: 3 h
Method: as §1

Compound CC[C@H](C)[C@H](NC(=O)[C@@H]1CCCN1C(=O)[C@H](Cc1c[nH]c2ccccc12)NC(=O)[C@H](CCC(N)=O)NC(=O)[C@H](CCCNC(=N)N)NC(=O)[C@@H](NC(=O)[C@@H](NC(=O)[C@@H](N)CCCNC(=N)N)C(C)C)C(C)C)C(=O)NCC(=O)N[C@@H](CCCNC(=N)N)C(=O)N[C@H](C(=O)N[C@H](C(=O)N[C@@H](CCCNC(=N)N)C(=O)N[C@@H](CCCNC(=N)N)C(=O)N[C@H](C(=O)N[C@H](C(=O)N[C@@H](CCCNC(=N)N)C(=O)N[C@@H](CCCNC(=N)N)C(=O)N[C@H](C(=O)N[C@H](C(=O)N[C@@H](CCCNC(=N)N)C(=O)N[C@@H](Cc1ccccc1)C(=O)O)C(C)C)C(C)C)C(C)C)C(C)C)C(C)C)C(C)C [Buf IIIb-F] (H-RVVRQWPIGRVVRRVVRRVVRF-OH) has an MIC [1] of 4 µg/mL (≈ 1.43 µM), an MIC [2] of 2 µg/mL (≈ 0.717 µM) and an MIC [3] of 0.5 µg/mL (≈ 0.179 µM). It also gave an MIC [4] of 2 µg/mL (≈ 0.717 µM), an MIC [5] of 4 µg/mL (≈ 1.43 µM) and an MIC [6] of 0.5 µg/mL (≈ 0.179 µM). For the same compound, the MIC [7] was 2 µg/mL (≈ 0.717 µM) and the MIC [8] was 2 µg/mL (≈ 0.717 µM).

CC[C@H](C)[C@H](NC(=O)[C@@H]1CCCN1C(=O)[C@H](Cc1c[nH]c2ccccc12)NC(=O)[C@H](CCC(N)=O)NC(=O)[C@H](CCCNC(=N)N)NC(=O)[C@@H](NC(=O)[C@@H](NC(=O)[C@@H](N)CCCNC(=N)N)C(C)C)C(C)C)C(=O)NCC(=O)N[C@@H](CCCNC(=N)N)C(=O)N[C@H](C(=O)N[C@H](C(=O)N[C@@H](CCCNC(=N)N)C(=O)N[C@@H](CCCNC(=N)N)C(=O)N[C@H](C(=O)N[C@H](C(=O)N[C@@H](CCCNC(=N)N)C(=O)N[C@@H](CCCNC(=N)N)C(=O)N[C@H](C(=O)N[C@H](C(=O)N[C@@H](CCCNC(=N)N)C(=O)N[C@@H](CC(C)C)C(=O)O)C(C)C)C(C)C)C(C)C)C(C)C)C(C)C)C(C)C [Buf IIIb-L] (H-RVVRQWPIGRVVRRVVRRVVRL-OH) was tested, and the MIC [9] was 2 µg/mL (≈ 0.726 µM), the “MIC of Buf IIIb-L digested with Chymotrypsin” value (from here on “MIC … with Chymotrypsin”) [1] was over 256 µg/mL and the “MIC of Buf IIIb-L digested with Pepsin” value [1] was 2 µg/mL. For the same compound, the “MIC of Buf IIIb-L digested with Trypsin” value [1] was over 256 µg/mL, the MIC [1] was 2 µg/mL (≈ 0.726 µM) and the “MIC … with Chymotrypsin” value [2] was over 256 µg/mL. For the same compound, the “MIC of Buf IIIb-L digested with Pepsin” value [2] was 4 µg/mL, the “MIC of Buf IIIb-L digested with Trypsin” value [2] was over 256 µg/mL and the MIC [2] was 4 µg/mL (≈ 1.45 µM). The “MIC … with Chymotrypsin” value [3] was over 256 µg/mL, the “MIC of Buf IIIb-L digested with Pepsin” value [3] was 2 µg/mL and the “MIC of Buf IIIb-L digested with Trypsin” value [3] was over 256 µg/mL. For the same compound, the MIC [3] was 2 µg/mL (≈ 0.726 µM), the “MIC … with Chymotrypsin” value [4] was over 256 µg/mL and the “MIC of Buf IIIb-L digested with Pepsin” value [4] was 2 µg/mL. For the same compound, the “MIC of Buf IIIb-L digested with Trypsin” value [4] was over 256 µg/mL, the MIC [4] was 2 µg/mL (≈ 0.726 µM) and the “MIC … with Chymotrypsin” value [5] was over 256 µg/mL. For the same compound, the “MIC of Buf IIIb-L digested with Pepsin” value [5] was 4 µg/mL, the “MIC of Buf IIIb-L digested with Trypsin” value [5] was over 256 µg/mL and the MIC [5] was 4 µg/mL (≈ 1.45 µM). The “MIC … with Chymotrypsin” value [6] was over 256 µg/mL, the “MIC of Buf IIIb-L digested with Pepsin” value [6] was 2 µg/mL and the “MIC of Buf IIIb-L digested with Trypsin” value [6] was over 256 µg/mL. The MIC [6] was 2 µg/mL (≈ 0.726 µM), the “MIC … with Chymotrypsin” value [7] was over 256 µg/mL and the “MIC of Buf IIIb-L digested with Pepsin” value [7] was 2 µg/mL. For the same compound, the “MIC of Buf IIIb-L digested with Trypsin” value [7] was over 256 µg/mL, the MIC [7] was 2 µg/mL (≈ 0.726 µM) and the “MIC … with Chymotrypsin” value [8] was over 256 µg/mL. The “MIC of Buf IIIb-L digested with Pepsin” value [8] was 2 µg/mL, the “MIC of Buf IIIb-L digested with Trypsin” value [8] was over 256 µg/mL and the MIC [8] was 2 µg/mL (≈ 0.726 µM).

In the case of CC[C@H](C)[C@H](NC(=O)[C@@H]1CCCN1C(=O)[C@H](Cc1c[nH]c2ccccc12)NC(=O)[C@H](CCC(N)=O)NC(=O)[C@H](CCCNC(=N)N)NC(=O)[C@@H](NC(=O)[C@@H](NC(=O)[C@@H](N)CCCNC(=N)N)C(C)C)C(C)C)C(=O)NCC(=O)N[C@@H](CCCNC(=N)N)C(=O)N[C@H](C(=O)N[C@H](C(=O)N[C@@H](CCCNC(=N)N)C(=O)N[C@@H](CCCNC(=N)N)C(=O)N[C@H](C(=O)N[C@H](C(=O)N[C@@H](CCCNC(=N)N)C(=O)N[C@@H](CCCNC(=N)N)C(=O)N[C@H](C(=O)N[C@H](C(=O)N[C@@H](CCCNC(=N)N)C(=O)N[C@@H](Cc1ccc(O)cc1)C(=O)O)C(C)C)C(C)C)C(C)C)C(C)C)C(C)C)C(C)C [Buf IIIb-Y] (H-RVVRQWPIGRVVRRVVRRVVRY-OH), the MIC [1] is reported as 4 µg/mL (≈ 1.43 µM), the MIC [2] is reported as 2 µg/mL (≈ 0.713 µM) and the MIC [3] is reported as 4 µg/mL (≈ 1.43 µM). For the same compound, the MIC [4] was 2 µg/mL (≈ 0.713 µM), the MIC [5] was 2 µg/mL (≈ 0.713 µM) and the MIC [6] was 1 µg/mL (≈ 0.356 µM). It also gave an MIC [7] of 2 µg/mL (≈ 0.713 µM) and an MIC [8] of 2 µg/mL (≈ 0.713 µM).

In the case of CC[C@H](C)[C@H](NC(=O)[C@@H]1CCCN1C(=O)[C@H](Cc1c[nH]c2ccccc12)NC(=O)[C@H](CCC(N)=O)NC(=O)[C@H](CCCNC(=N)N)NC(=O)[C@@H](NC(=O)[C@@H](NC(=O)[C@@H](N)CCCNC(=N)N)C(C)C)C(C)C)C(=O)NCC(=O)N[C@@H](CCCNC(=N)N)C(=O)N[C@H](C(=O)N[C@H](C(=O)N[C@@H](CCCNC(=N)N)C(=O)N[C@@H](CCCNC(=N)N)C(=O)N[C@H](C(=O)N[C@H](C(=O)N[C@@H](CCCNC(=N)N)C(=O)N[C@@H](CCCNC(=N)N)C(=O)N[C@H](C(=O)N[C@H](C(=O)N[C@@H](CCCNC(=N)N)C(=O)O)C(C)C)C(C)C)C(C)C)C(C)C)C(C)C)C(C)C [Buf IIIb] (H-RVVRQWPIGRVVRRVVRRVVR-OH), the MIC [1] is reported as 1 µg/mL (≈ 0.378 µM), the MIC [2] is reported as 2 µg/mL (≈ 0.757 µM) and the MIC [3] is reported as 1 µg/mL (≈ 0.378 µM). The MIC [4] was 2 µg/mL (≈ 0.757 µM), the MIC [5] was 1 µg/mL (≈ 0.378 µM) and the MIC [6] was 0.5 µg/mL (≈ 0.189 µM). For the same compound, the MIC [7] was 2 µg/mL (≈ 0.757 µM), the MIC [8] was 2 µg/mL (≈ 0.757 µM) and the “MIC, range over the microorganisms of Table 2” value [10] was 0.5 to 2 µg/mL.

In the case of CC(C)C[C@H](NC(=O)CNC(=O)[C@H](C)NC(=O)[C@@H](N)CCCNC(=N)N)C(=O)N[C@@H](CCC(N)=O)C(=O)N[C@@H](Cc1ccccc1)C(=O)N1CCC[C@H]1C(=O)N[C@H](C(=O)NCC(=O)N[C@@H](CCCNC(=N)N)C(=O)N[C@@H](CC(C)C)C(=O)N[C@@H](CC(C)C)C(=O)N[C@@H](CCCNC(=N)N)C(=O)N[C@@H](CCCNC(=N)N)C(=O)N[C@@H](CC(C)C)C(=O)N[C@@H](CC(C)C)C(=O)N[C@@H](CCCNC(=N)N)C(=O)N[C@@H](CCCNC(=N)N)C(=O)N[C@@H](CC(C)C)C(=O)N[C@@H](CC(C)C)C(=O)N[C@@H](CCCNC(=N)N)C(=O)O)C(C)C [Buforin llb, reference compound] (H-RAGLQFPVGRLLRRLLRRLLR-OH; N-terminus and C-terminus assumed), the MIC [1] is reported as 1 µg/mL (≈ 0.391 µM), the MIC [2] is reported as 2 µg/mL (≈ 0.781 µM) and the MIC [3] is reported as 2 µg/mL (≈ 0.781 µM). For the same compound, the MIC [4] was 2 µg/mL (≈ 0.781 µM), the MIC [5] was 2 µg/mL (≈ 0.781 µM) and the MIC [6] was 2 µg/mL (≈ 0.781 µM). For the same compound, the MIC [7] was 2 µg/mL (≈ 0.781 µM) and the MIC [8] was 1 µg/mL (≈ 0.391 µM).
